PubChem BioAssay AID2060510 (Molecular Pharmacology Branch, DTP, NCI, 2025)

Test system: 439559-082-T-J2-PDC spheroids viability
Assay: Anticancer human tumor 439559-082-T-J2-PDC patient-derived colon adenocarcinoma cell line growth inhibition [GQUAD]
Conditions: for IC50: curve of first compound; for viability, T/C: stronger effect = lower value
Excerpt: DNA G-quadruplex Stabilizer Agents in Combinations in Complex Spheroids
A high-throughput screen of multi-cell type tumor spheroids was designed to identify active combinations of DNA G-quadruplex stabilizer agents and targeted small molecules. Complex spheroids include a stromal component modeled by human endothelial cells (HUVEC) and fibroblasts modeled by human mesenchymal stem cells (MSCs). The concentration ranges selected for each drug and investigational agent were based upon clinically achievable concentrations if the clinical Cmax of the agent was known.
Compounds. The drugs and investigational agents: pidnarulex (CX-5461; NSC782164), APTO-253 (NSC789042), BRACO-19 (NSC847499), peposertib (NSC802822), ceralasertib (NSC780249), elimusertib (NSC800525), camonsertib (NSC841442), AZD-1390 (NSC803789), olaparib (NSC753686), talazoparib (NSC767125), ART-558 (NSC835418), sotorasib (NSC818433), MRTX-1133 (NSC836407), SN-38 (NSC673596), topotecan (NSC609699), etoposide (NSC141540), doxorubicin (NSC123127), gemcitabine (NSC613327), 5-fluorouracil (NSC19893), paclitaxel (NSC125973), vemurafenib (NSC761431), panobinostat (NSC761190), R-306465 (JNJ-16241199; NSC773264), adavosertib (NSC754352), TP-3654 (NSC805149), carboplatin (NSC241240), KSQ-4279 (NSC840948), and staurosporine (NSC755774) were obtained from the National Cancer Institute (NCI) Developmental Therapeutics Program Chemical Repository (34). The FDA-approved anticancer drug set is available from the NCI Developmental Therapeutics Program. […] The stock solutions were prepared in dimethyl sulfoxide (DMSO, Sigma-Aldrich, St. Louis, MO, cat. D2650) at 800-fold the tested concentration and stored at -70 degrees C prior to their use. All drugs and investigational agents were tested over a range starting from a high concentration at or near the clinical Cmax and decreasing in half-log increments. If the clinical Cmax for an agent had not been determined, the highest concentration tested was 10 microM.
2.3 Cell Culture. All cells were maintained in an incubator at 37 degrees C and 5% CO2 with 95% humidity. The PDC lines were cultured according to standard operating procedures established by the NCI PDMR. All PDCs were thawed and cultured in Matrigel-coated flasks prepared with a working solution of 1X Ham's F-12 nutrient mix, without supplementation (Invitrogen, cat. 11765054), 100 U/mL penicillin-streptomycin (Invitrogen, cat. 15140122), and 2.5% Matrigel (Corning Inc., cat. 354248) for the first three passages. The 857933-349-R-J2-PDC line was cultured in 6C/Colon 1B media, which includes advanced DMEM/F-12 (Thermo Fisher Scientific, cat. 12634028), 10 mM HEPES (Thermo Fisher Scientific, cat. 15630080), 1X GlutaMAX supplement (Thermo Fisher Scientific, cat. 35050061), 0.1 mg/mL primocin (InvivoGen, cat. ant-pm-2), 10% defined fetal bovine serum, heat inactivated (HyClone Laboratories Inc., cat. SH30070.03HI), 50% L-WRN conditioned media (ATCC, cat. CRL-3276), 1.25 mM N-Acetyl-L-cysteine (Sigma-Aldrich, cat. A9165), 10 mM nicotinamide (Sigma-Aldrich, cat. N0636), 1X B-27 supplement (Thermo Fisher Scientific, cat. 17504044), 1X N-2 supplement (Thermo Fisher Scientific, cat. 17502048), 10 microM Y-27632 dihydrochloride (Tocris Bioscience, cat. 1254), and 50 ng/mL human EGF recombinant protein (Thermo Fisher Scientific, cat. PHG0311). The 485176-168-R4-J1-PDC line was cultured in Panc media, which includes all 6C/Colon 1B media components plus 100 ng/mL human FGF-10 (Thermo Fisher Scientific, cat. 100-26), 500 nM SB-431542 (Selleckchem, cat. S1067), and gastrin (Tocris, cat. 3006).
[…]

[1] = second compound 0.0316 µM, first compound 0.0316 µM
[2] = second compound 0.0316 µM, first compound 0.1 µM
[3] = second compound 0.0316 µM, first compound 0.316 µM
[4] = second compound 0.0316 µM, first compound 1 µM
[5] = second compound 0.0316 µM, first compound 3.16 µM
[6] = second compound 0.0316 µM, first compound 10 µM
[7] = second compound 0.1 µM, first compound 0.0316 µM
[8] = second compound 0.1 µM, first compound 0.1 µM
[9] = second compound 0.1 µM, first compound 0.316 µM
[10] = second compound 0.1 µM, first compound 1 µM
[11] = second compound 0.1 µM, first compound 3.16 µM
[12] = second compound 0.1 µM, first compound 10 µM
[13] = second compound 0.316 µM, first compound 0.0316 µM
[14] = second compound 0.316 µM, first compound 0.1 µM
[15] = second compound 0.316 µM, first compound 0.316 µM
[16] = second compound 0.316 µM, first compound 1 µM
[17] = second compound 0.316 µM, first compound 3.16 µM
[18] = second compound 0.316 µM, first compound 10 µM
[19] = second compound 1 µM, first compound 0.0316 µM
[20] = second compound 1 µM, first compound 0.1 µM
[21] = second compound 1 µM, first compound 0.316 µM
[22] = second compound 1 µM, first compound 1 µM
[23] = second compound 1 µM, first compound 3.16 µM
[24] = second compound 1 µM, first compound 10 µM
[25] = second compound 3.16 µM, first compound 0.0316 µM
[26] = second compound 3.16 µM, first compound 0.1 µM
[27] = second compound 3.16 µM, first compound 0.316 µM
[28] = second compound 3.16 µM, first compound 1 µM
[29] = second compound 3.16 µM, first compound 3.16 µM
[30] = second compound 3.16 µM, first compound 10 µM
[31] = second compound 10 µM, first compound 0.0316 µM
[32] = second compound 10 µM, first compound 0.1 µM
[33] = second compound 10 µM, first compound 0.316 µM
[34] = second compound 10 µM, first compound 1 µM
[35] = second compound 10 µM, first compound 3.16 µM
[36] = second compound 10 µM, first compound 10 µM
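Note: spheroids exposed to the agents for 7 days before readout.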
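Throughout, for viability, T/C: percent of luminescence signal in DMSO vehicle wells taken as 100% viability.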

`C#Cc1c(F)ccc2cc(O)cc(-c3ncc4c(N5CC6CCC(C5)N6)nc(OCC56CCCN5CC(F)C6)nc4c3F)c12` (stereo unspecified) + Cc1cnc(CNC(=O)c2c(=O)c3ccc(N4CCCN(C)CC4)nc3n3c2sc2ccccc23)cn1 showed an IC50 (second compound 0.0316 µM) of 9.53 µM, an IC50 (second compound 0.1 µM) of over 10 µM and an IC50 (second compound 0.316 µM) of 6.48 µM. The IC50 (second compound 1 µM) was 3.09 µM, the IC50 (second compound 3.16 µM) was 1.91 µM and the IC50 (second compound 10 µM) was 0.665 µM. For the same compound, the viability, T/C [1] was 92.5%, the viability, T/C [2] was 81.9% and the viability, T/C [3] was 76%. It also gave a viability, T/C [4] of 62.7%, a viability, T/C [5] of 62.6% and a viability, T/C [6] of 47.5%. For the same compound, the viability, T/C [7] was 92.6%, the viability, T/C [8] was 80.1% and the viability, T/C [9] was 60.1%. The viability, T/C [10] was 61.2%, the viability, T/C [11] was 57.2% and the viability, T/C [12] was 53%. It also gave a viability, T/C [13] of 81.2%, a viability, T/C [14] of 68.8% and a viability, T/C [15] of 68.9%. It also gave a viability, T/C [16] of 57.9%, a viability, T/C [17] of 58.6% and a viability, T/C [18] of 45.2%. It also gave a viability, T/C [19] of 86.2%, a viability, T/C [20] of 66.9% and a viability, T/C [21] of 65.3%. It also gave a viability, T/C [22] of 56.1%, a viability, T/C [23] of 49.5% and a viability, T/C [24] of 45.8%. For the same compound, the viability, T/C [25] was 71.3%, the viability, T/C [26] was 73.1% and the viability, T/C [27] was 56.7%. For the same compound, the viability, T/C [28] was 55.8%, the viability, T/C [29] was 47.8% and the viability, T/C [30] was 36.8%. It also gave a viability, T/C [31] of 59.1%, a viability, T/C [32] of 55.9% and a viability, T/C [33] of 49.4%. It also gave a viability, T/C [34] of 51.3%, a viability, T/C [35] of 42.1% and a viability, T/C [36] of 33.7%.
For `CC(=O)O[C@H]1C(=O)[C@@]2(C)[C@H]([C@H](OC(=O)c3ccccc3)[C@]3(O)C[C@H](OC(=O)[C@H](O)[C@@H](NC(=O)c4ccccc4)c4ccccc4)C(C)=C1C3(C)C)[C@]1(OC(C)=O)CO[C@@H]1C[C@@H]2O` + Cc1cnc(CNC(=O)c2c(=O)c3ccc(N4CCCN(C)CC4)nc3n3c2sc2ccccc23)cn1, the IC50 (second compound 0.0316 µM) was 2.82 µM, the IC50 (second compound 0.1 µM) was 3.41 µM and the IC50 (second compound 0.316 µM) was 3.38 µM. The IC50 (second compound 1 µM) was 3.3 µM, the IC50 (second compound 3.16 µM) was 5.1 µM and the IC50 (second compound 10 µM) was 4.09 µM. The viability, T/C [1] was 89.9%, the viability, T/C [2] was 89.1% and the viability, T/C [3] was 81.3%. For the same compound, the viability, T/C [4] was 74.2%, the viability, T/C [5] was 46.1% and the viability, T/C [6] was 39.6%. For the same compound, the viability, T/C [7] was 97.5%, the viability, T/C [8] was 88% and the viability, T/C [9] was 70.7%. For the same compound, the viability, T/C [10] was 70%, the viability, T/C [11] was 46% and the viability, T/C [12] was 40.5%. For the same compound, the viability, T/C [13] was 90.3%, the viability, T/C [14] was 81.2% and the viability, T/C [15] was 78.2%. For the same compound, the viability, T/C [16] was 65.8%, the viability, T/C [17] was 49.3% and the viability, T/C [18] was 39.2%. The viability, T/C [19] was 74.7%, the viability, T/C [20] was 72.8% and the viability, T/C [21] was 76.6%. The viability, T/C [22] was 61.8%, the viability, T/C [23] was 51.8% and the viability, T/C [24] was 42.9%. The viability, T/C [25] was 62.2%, the viability, T/C [26] was 73.1% and the viability, T/C [27] was 72.5%. For the same compound, the viability, T/C [28] was 58.9%, the viability, T/C [29] was 54.7% and the viability, T/C [30] was 42.4%. It also gave a viability, T/C [31] of 64.8%, a viability, T/C [32] of 57.1% and a viability, T/C [33] of 61.1%. The viability, T/C [34] was 56%, the viability, T/C [35] was 55.3% and the viability, T/C [36] was 36.6%.
`Cc1cccc(N(C)C(=O)C2C(O)CCN2c2nc(C)cc(C(F)(F)F)c2C#N)c1` (stereo unspecified) + Cc1cnc(CNC(=O)c2c(=O)c3ccc(N4CCCN(C)CC4)nc3n3c2sc2ccccc23)cn1 showed an IC50 (second compound 0.0316 µM) of over 10 µM, an IC50 (second compound 0.1 µM) of over 10 µM and an IC50 (second compound 0.316 µM) of over 10 µM. For the same compound, the IC50 (second compound 1 µM) was over 10 µM, the IC50 (second compound 3.16 µM) was over 10 µM and the IC50 (second compound 10 µM) was over 10 µM. It also gave a viability, T/C [1] of 101%, a viability, T/C [2] of 95.6% and a viability, T/C [3] of 82.5%. The viability, T/C [4] was 99%, the viability, T/C [5] was 95.2% and the viability, T/C [6] was 101%. The viability, T/C [7] was 117%, the viability, T/C [8] was 93.5% and the viability, T/C [9] was 90.2%. The viability, T/C [10] was 85.4%, the viability, T/C [11] was 93.3% and the viability, T/C [12] was 92.6%. For the same compound, the viability, T/C [13] was 90.8%, the viability, T/C [14] was 86.3% and the viability, T/C [15] was 79.3%. For the same compound, the viability, T/C [16] was 82.2%, the viability, T/C [17] was 92.2% and the viability, T/C [18] was 84.3%. For the same compound, the viability, T/C [19] was 83.1%, the viability, T/C [20] was 81.2% and the viability, T/C [21] was 74.2%. For the same compound, the viability, T/C [22] was 76.3%, the viability, T/C [23] was 80.5% and the viability, T/C [24] was 74.8%. The viability, T/C [25] was 73.4%, the viability, T/C [26] was 72.1% and the viability, T/C [27] was 71.9%. The viability, T/C [28] was 69.3%, the viability, T/C [29] was 72.7% and the viability, T/C [30] was 66.3%. For the same compound, the viability, T/C [31] was 72.1%, the viability, T/C [32] was 70.2% and the viability, T/C [33] was 68.5%. For the same compound, the viability, T/C [34] was 67.7%, the viability, T/C [35] was 72.5% and the viability, T/C [36] was 63%.
